Laboratory results taken from ChEMBL document CHEMBL4834497, “Spirocyclic Thiohydantoin Antagonists of F877L and Wild-Type Androgen Receptor for Castration-Resistant Prostate Cancer” (ACS Med Chem Lett, 2021).

What was measured:
[1] = Metabolic stability in human liver microsomes assessed as half life; assay type: ADME, Microsome
[2] = AUC (0 to infinity) in CD-1 mouse at 10 mg/kg, po; assay type: ADME, organism-based; set-up: time infinity, route oral, dose 10 mg/kg; settings: in vivo
[3] = Cmax in CD-1 mouse at 10 mg/kg, po; assay type: ADME, organism-based; set-up: route oral, dose 10 mg/kg; settings: in vivo
[4] = Clearance in CD-1 mouse at 2 mg/kg, iv; assay type: ADME, organism-based; settings: in vivo
[5] = Half life in CD-1 mouse at 2 mg/kg, iv; assay type: ADME, organism-based; settings: in vivo
[6] = Volume of distribution in steady state in CD-1 mouse at 2 mg/kg, iv; assay type: ADME, organism-based; settings: in vivo, read-out: Vdss
[7] = Oral bioavailability in CD-1 mouse at 10 mg/kg; assay type: ADME, organism-based; settings: in vivo
[8] = Metabolic stability in dog liver microsomes assessed as unchanged parent compound remaining at 10 uM incubated for 60 mins in presence of [13C2,15N-glycine]GSH and NADPH by LC-MS/MS analysis; assay type: ADME, Canis lupus familiaris, Microsome; settings: read-out: Stabilty
[9] = Metabolic stability in dog liver microsomes assessed as unchanged parent compound remaining at 10 uM incubated for 60 mins in presence of [13C2,15N-glycine]GSH by LC-MS/MS analysis; assay type: ADME, Canis lupus familiaris, Microsome; settings: read-out: Stabilty
[10] = target: Androgen receptor (Homo sapiens, UniProt P10275, F877L); experiment: Antagonist activity at AR F877L mutant (unknown origin) transfected in human LNCAP cells assessed as inhibition of R1881-stimulated receptor transcriptional activation measured after 20 to 24 hrs by Steady-Glo luciferase assay; assay type: cell-based
Chain of Androgen receptor (Homo sapiens, UniProt P10275, F877L) (P10275 whole entry F877L): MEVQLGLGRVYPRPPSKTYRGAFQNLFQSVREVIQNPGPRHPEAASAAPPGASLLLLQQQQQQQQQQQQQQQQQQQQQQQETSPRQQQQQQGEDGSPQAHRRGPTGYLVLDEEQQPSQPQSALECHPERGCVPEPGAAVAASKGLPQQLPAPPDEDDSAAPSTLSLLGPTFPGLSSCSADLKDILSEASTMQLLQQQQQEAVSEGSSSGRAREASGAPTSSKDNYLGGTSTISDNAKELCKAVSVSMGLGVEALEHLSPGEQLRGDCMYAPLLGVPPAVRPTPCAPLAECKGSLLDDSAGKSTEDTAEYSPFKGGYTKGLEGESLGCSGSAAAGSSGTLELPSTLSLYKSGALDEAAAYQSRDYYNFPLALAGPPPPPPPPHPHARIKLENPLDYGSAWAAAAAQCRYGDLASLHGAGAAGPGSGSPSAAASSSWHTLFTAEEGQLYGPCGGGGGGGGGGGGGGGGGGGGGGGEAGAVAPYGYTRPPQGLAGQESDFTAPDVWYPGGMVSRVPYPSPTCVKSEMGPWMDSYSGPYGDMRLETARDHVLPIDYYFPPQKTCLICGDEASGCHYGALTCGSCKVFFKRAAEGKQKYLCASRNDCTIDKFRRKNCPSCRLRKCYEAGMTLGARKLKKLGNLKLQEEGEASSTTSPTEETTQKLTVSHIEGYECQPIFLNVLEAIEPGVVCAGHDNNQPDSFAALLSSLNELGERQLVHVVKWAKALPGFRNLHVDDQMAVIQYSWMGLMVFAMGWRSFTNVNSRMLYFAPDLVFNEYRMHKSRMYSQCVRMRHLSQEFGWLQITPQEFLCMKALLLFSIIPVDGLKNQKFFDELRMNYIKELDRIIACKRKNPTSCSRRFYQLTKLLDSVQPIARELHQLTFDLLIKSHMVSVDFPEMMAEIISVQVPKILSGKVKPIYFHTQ

[11] = target: T1, Androgen receptor (Homo sapiens, UniProt P10275); assay type: tissue-based, LNCaP
T1 sequence (P10275 whole entry): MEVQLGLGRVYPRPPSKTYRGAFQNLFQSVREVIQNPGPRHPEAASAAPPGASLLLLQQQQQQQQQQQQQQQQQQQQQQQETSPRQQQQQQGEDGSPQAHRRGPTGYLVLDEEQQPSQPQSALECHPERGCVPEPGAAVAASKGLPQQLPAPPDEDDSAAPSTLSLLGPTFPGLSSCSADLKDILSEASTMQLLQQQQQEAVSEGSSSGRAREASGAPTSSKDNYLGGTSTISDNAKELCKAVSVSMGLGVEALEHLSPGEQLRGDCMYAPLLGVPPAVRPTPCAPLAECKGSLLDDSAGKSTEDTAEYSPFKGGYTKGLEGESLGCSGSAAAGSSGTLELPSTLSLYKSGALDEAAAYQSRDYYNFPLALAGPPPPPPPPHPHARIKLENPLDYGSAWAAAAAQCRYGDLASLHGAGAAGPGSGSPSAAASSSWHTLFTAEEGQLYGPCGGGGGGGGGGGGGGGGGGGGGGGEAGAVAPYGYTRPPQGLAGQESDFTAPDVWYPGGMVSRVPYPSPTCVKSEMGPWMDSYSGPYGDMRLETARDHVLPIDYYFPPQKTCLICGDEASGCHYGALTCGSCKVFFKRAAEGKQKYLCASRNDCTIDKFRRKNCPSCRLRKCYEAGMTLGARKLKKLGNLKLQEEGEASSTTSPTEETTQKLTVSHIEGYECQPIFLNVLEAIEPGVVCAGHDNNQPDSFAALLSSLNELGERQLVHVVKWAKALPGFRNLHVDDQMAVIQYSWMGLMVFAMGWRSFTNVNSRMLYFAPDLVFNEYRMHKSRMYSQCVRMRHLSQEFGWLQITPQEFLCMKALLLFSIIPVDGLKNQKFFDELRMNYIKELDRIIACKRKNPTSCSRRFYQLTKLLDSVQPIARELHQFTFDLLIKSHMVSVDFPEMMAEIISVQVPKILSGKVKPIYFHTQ
Description: Antagonist activity at wild type androgen receptor in castration-resistant human LNCaP cells assessed as inhibition of R1881-stimulated receptor transcriptional activation measured after 20 to 24 hrs by Steady-Glo luciferase assay

Row | half-life [1] [h] | AUC(0-inf) [2] [ng·h/mL] | Cmax [3] [µM] | clearance [4] [mL/min/kg] | half-life [5] [h] | Vd [6] [L/kg] | bioavailability [7] [%] | remaining at 1 h, 10 µM [8] [%] | remaining at 1 h, 10 µM [9] [%] | SMILES | IC50 [10] [µM] | IC50 [11] [µM]
1 | > 3 | 15200 | 0.92 | 11.5 | 16.7 | 16.3 | 97 | 98.4 | 100 | CN1C(=S)N(c2cnc(C#N)c(C(F)(F)F)c2)C(=O)C12Cc1ccc(OC3CCNCC3)cc1C2 (stereo not given) |  | 
2 | > 3 | 27000 | 3.69 | 3.4 | 19.5 | 4.8 | 61 |  |  | CNC(=O)c1cc2c(cc1F)CC1(C2)C(=O)N(c2cnc(C#N)c(C(F)(F)F)c2)C(=S)N1C(C)C (stereo not given) |  | 
3 |  |  |  |  |  |  |  |  |  | CNC(=O)c1ccc2c(c1)CC1(C2)C(=O)N(c2ccc(C#N)c(C(F)(F)F)c2)C(=O)N1C (stereo not given) | 1.66 | > 30
4 |  |  |  |  |  |  |  | 52.3 | 100 | CN1C(=S)N(c2cnc(C#N)c(C(F)(F)F)c2)C(=O)C12Cc1ccc(O)cc1C2 (stereo not given) |  | 
5 |  |  |  |  |  |  |  |  |  | CNC(=O)c1ccc2c(c1)CC1(C2)NC(=S)N(c2cnc(C#N)c(C(F)(F)F)c2)C1=O (stereo not given) | > 15 | > 15
6 | 1.97 | 39100 | 3.7 | 4 | 6.9 | 2.3 | 92 |  |  | CNC(=O)c1cc2c(cc1F)C[C@@]1(C2)C(=O)N(c2cnc(C#N)c(C(F)(F)F)c2)C(=S)N1C(C)C |  | 
7 |  |  |  |  |  |  |  |  |  | CNC(=O)c1ccc2c(c1)CC1(C2)NC(=S)N(c2ccc(C#N)c(C(F)(F)F)c2)C1=O (stereo not given) | 5.01 | 11.2
8 | 2.25 | 99400 | 6.1 | 1.3 | 15.8 | 1.9 | 80 |  |  | CNC(=O)c1cc2c(cc1F)C[C@]1(C2)C(=O)N(c2cnc(C#N)c(C(F)(F)F)c2)C(=S)N1C(C)C |  | 

Row | SMILES | half-life [1] [h] | AUC(0-inf) [2] [ng·h/mL] | Cmax [3] [µM] | clearance [4] [mL/min/kg] | half-life [5] [h] | Vd [6] [L/kg] | bioavailability [7] [%] | remaining at 1 h, 10 µM [8] [%] | remaining at 1 h, 10 µM [9] [%] | IC50 [10] [µM] | IC50 [11] [µM]
9 | CNC(=O)c1cc2c(cc1F)CC1(C2)C(=O)N(c2ccc(C#N)c(C(F)(F)F)c2)C(=S)N1C(C)C (stereo not given) | > 3 | 107000 | 8.85 | 1.6 | 14.8 | 1.7 | 102 |  |  |  | 
10 | CNC(=O)c1cc2c(cc1F)C[C@@]1(C2)C(=O)N(c2ccc(C#N)c(C(F)(F)F)c2)C(=S)N1C(C)C | > 3 | 50400 | 5.81 | 3 | 5.2 | 1.8 | 91 |  |  |  | 
11 | N#Cc1ncc(N2C(=O)C3(CCC3)N(c3ccc(O)cc3)C2=S)cc1C(F)(F)F |  |  |  |  |  |  |  | 78.7 |  |  | 
12 | CNC(=O)c1cc2c(cc1F)C[C@]1(C2)C(=O)N(c2ccc(C#N)c(C(F)(F)F)c2)C(=S)N1C(C)C | > 3 | 104000 | 5.86 | 0.9 | 10.3 | 1.7 | 63 |  |  |  | 
